Laboratory results from patent publication US6913882B2, “Methods of screening for B cell activity modulators” (Affymetrix, Inc., priority 1999, dated 2005).
pIC50: −log10 of the molar value. Read-outs that look alike come from different tables or passages of the source. Each block holds one molecule with its values, some of them ahead of it.

Assays:
early response genes = assay: B cell activation (HEL or anti-mu, 1 hr) with FK506, EGTA or PD98059, early response gene expression on arrays; format: cell-based, mice
Experimental: (§1) Splenic B cells from non-transgenic, Ig^HEL or sHEL/Ig^HEL transgenic mice were purified at room temperature in 1% bovine calf serum in RPMI. The spleen cells were stained with CD4, CD8 and Mac-1 FITC conjugated antibodies (Caltag) and depleted of T cells and macrophages with sheep anti-FITC magnetic beads (Perseptive Biosystems). The remaining cells were 85-95% B220 positive and were either lysed immediately (naive and tolerant cell preps) or stimulated in RPMI with 1% serum at 37° C. at 2-3×10^6 cells/ml. For stimulation experiments, HEL (Sigma) was used at 500 ng/ml, goat anti-mu (Jackson Labs) at 10 μg/ml, FK506 at 10 ng/ml, PD98059 (NEB) at 20 μM unless stated otherwise, ionomycin at 1 μM and EGTA at 3 mM. Cells were preincubated for 45 minutes with PD98059, 15 minutes with FK506 and 2 minutes with EGTA before addition of HEL or anti-mu. Mock stimulations were performed by addition of carrier alone for stimuli or inhibitors. At the end of the incubation, the cells were pelleted by centrifugation, resuspended in a minimal volume of medium (about 50 μl) by pipetting and lysed in 0.5-1 ml Trizol (Gibco BRL).
(§2) Trizol lysates were phenol-extracted and precipitated with isopropanol. Poly A+ RNA was purified with Oligotex (Qiagen). cDNA was synthesised with a Superscriptll cDNA synthesis kit (Gibco BRL) using a T7:(dT)24 oligo to prime the first strand and purified by phenol extraction and ethanol precipitation. […]
Each gene on the arrays was tiled as a collection of approximately 20 probe pairs. […] The perfect match—mismatch intensities (PM—MM) were calculated for each probe pair for each gene in each experiment. […] Positive t values associated with a probability of less than 0.1 were scored as increased, negative t values with a probability of less than 0.1 were scored as decreased. The number of increased and decreased probe pairs associated with each gene was determined and called npos and nneg respectively (of the approximately 20 probe pairs tiled for each gene). […] The probability of scoring npos or more of the total number of probe pairs was determined. […]

B cell = B cell death on activation in the presence of FK506; format: cell-based
Egr-1 = assay: B cell activation with PD98059 titration, Egr-1 upregulation monitored on expression arrays; format: cell-based, mice
Experimental: as §1
as §2, with “precipitation. The cDNA was used as a template for in vitro transcription (IVT) using the Megascript system (Ambion) with the inclusion of biotinylated CTP and UTP.” for “precipitation.”
An intensity for each gene was calculated based on a trimmed mean of the PM—MM values. […]
In addition to NFAT, the ERK pathway is also activated in foreign or self antigen-stimulated cells. To determine downstream transcriptional effects of ERK, the effect of MEK, an ERK kinase, on B cell activation was determined. The MEK inhibitor PD98059 was titrated in B cell activation experiments and gene expression was monitored using one of the four arrays in the set (approximately 1600 genes). […]

SMILES: O=C(O)CN(CCOCCOCCN(CC(=O)O)CC(=O)O)CC(=O)O [EGTA]
effect on the transcript profile of stimulated naïve cells (early response genes; EGTA, FIG. 3C): essentially the same effect on the transcript profile as FK506

SMILES: C=CC[C@@H]1/C=C(\C)C[C@H](C)C[C@H](OC)[C@H]2O[C@@](O)(C(=O)C(=O)N3CCCC[C@H]3C(=O)O[C@H](/C(C)=C/[C@@H]3CC[C@@H](O)[C@H](OC)C3)[C@H](C)[C@@H](O)CC1=O)[C@H](C)C[C@@H]2OC [FK506]
B cell death on activation (B cell): increased B cell death

pIC50 (Egr-1; B cell activation, PD98059 titrated, read-out: concentration at which upregulation of Egr-1 was 50% inhibited): 5.00 to 5.30
pIC50 (Egr-1; anti-mu stimulation of non-transgenic B cells, FIG. 3D, read-out: IC50 for inhibition of upregulation of Egr-1): ~5.30
SMILES: COc1cccc(-c2cc(=O)c3ccccc3o2)c1N [PD98059]
inhibition of upregulation of Egr-1 (Egr-1; 20 μM PD98059): totally inhibited
sensitivity of induction of three transcripts (Egr-1, NAB2 and Gfi-1) upregulated by both self and foreign antigen (early response genes; FIG. 3D (PD98059), FIG. 3A (FK506)): sensitive
sensitivity of regulation of other early response genes relative to Egr-1 (early response genes; PD98059 titration): less sensitive
